Data reported in PMC6151990, “Effects of P-Glycoprotein on the Transport of DL0410, a Potential Multifunctional Anti-Alzheimer Agent” (Molecules : A Journal of Synthetic Chemistry and Natural …, 2017).
Counter-ions that a name gives are not always drawn.

How the values were obtained:
Caco-2 cells = assay: CCK-8 cytotoxicity assay, Caco-2; assay type: cell-based, human; details: Caco-2, 100 µM, 12 h
Description: (§1) The cytotoxicity of DL0410 was determined by the CCK-8 assay. Caco-2 Cells, at a density of 1 × 10^5 cells/mL, were seeded in 96-well plates for culture. The seeding density of MDCK and MDCK-MDR1cells were 0.8 × 10^5 cells/mL. Two days after seeding, increasing concentrations (0.1, 1, 10, 100 µM) of DL0410 were added for treatment, and cytotoxicity was measured after 12 h by the CCK-8 assay.

MDCK cells = assay: CCK-8 cytotoxicity assay, MDCK; assay type: cell-based, Canine; details: 100 µM, 12 h
Description: as §1

MDCK-MDR1 cells = assay: CCK-8 cytotoxicity assay, MDCK-MDR1; assay type: cell-based, Canine; details: MDCK-MDR1, 100 µM, 12 h
Description: as §1

[1] = Transcellular transport across Caco-2 cell monolayer; assay type: in vitro ADME; details: human
Description: (§2) Caco-2, MDCK and MDCK-MDR1cells were cultured at seeding densities of 1 × 10^5, 2 × 10^5, 2 × 10^5 cells/cm^2, respectively, onto polycarbonate membrane transwell inserts in 12-well plates. Prior to performing the transport studies, we determined the values of Trans Epithelial Electric Resistance (TEER) and Papp values of fluorescein to ensure the integrity of the monolayers [16]. After seeding for 18 and 21 days, the cultural medium of transwell chambers was removed carefully and washed twice with HBSS (pH 7.4, 37 °C), and then pre-incubated for 30 min at 37 °C. The transwell chambers were incubated for 20 min at 37 °C. […] After incubation for 2 h, the liquor of each side was collected for determination.
(§3) To analyze DL0410 in HBSS buffer, 15 µL of IS working solution (phenacetin, 1 µg/mL) and 150 µL sample were mixed with 1000 µL ethyl acetate to extract the analytes, and then vortexed for 5 min. After centrifuging at 13,000 rpm for 10 min, the supernatant was added into another tube carefully and evaporated to dryness under a gentle flow of nitrogen gas. The residue was reconstituted in 60 µL acetonitrile–water (20:80, v/v, containing 0.5% formic acid). After centrifugation, the supernatant was used for analysis. The analytical column was Agilent Zorbax SD-C18 (100 mm × 2.1 mm, 3.5 µm; Agilent Technologies, Santa Clara, CA, USA). The mobile phase was made up of acetonitrile–water (0.5% formic acid) (20:80, v/v). Injection volume, flow rate, and column temperature were 20 µL, a 0.3 mL/min, and 35 °C, respectively. The mass spectrometer was operated in the positive scan mode. The conditions of ESI source were as follows: drying gas flow was set at 10 L/min, nebulizer pressure was 35.0 psig, capillary voltage was 3000 V, and drying gas temperature was 350 °C. The ESI was performed using nitrogen to assist nebulization.
(§4) The Papp values (cm/s) were computed according to the following equation [16], Papp=V/C0×1/S×dC/dt (V: volume of medium in the receiver chamber (mL); C0: initial concentration in the donor chamber (µM/mL), S: the surface area of monolayer (cm^2); dC/dt: variance rate in the receptor chamber of concentration with time (µM/mL/s)) The ER was calculated by the Papp value from BL to AP divided by Papp value from AP to BL. In MDCK-MDR1 and MDCK cell models, the NER was measured by comparing the ER values as follows [16]. (1) ER=Papp(B−A)/Papp(A−B) (2) NER=ERMDCK−MDR1/ERMDCK

[2] = Transcellular transport across MDCK cell monolayer; assay type: in vitro ADME, Canine; details: dog
Description: as §2, §3, §4

MDCK-MDR1 cell monolayer = assay: Transcellular transport across MDCK-MDR1 cell monolayer; assay type: in vitro ADME, Canine; details: ER MDCK-MDR1 / ER MDCK
Description: as §2, §3, §4

P-gp (MDR1) = assay: as above; assay type: in vitro ADME, Canine; details: dog, pH 7.4; MDCK-MDR1, DL0410 10 μM; read-out: ER
Description: as §2, §3, §4

P-gp [3] = assay: as above; assay type: in vitro ADME, Canine; details: dog, pH 7.4
Description: as §2, §3, §4

P-gp [4] = biological target: T1, P-gp (Homo sapiens, UniProt P08183); assay: Effect on Rho123 transport (BL to AP) in MDCK-MDR1 cells; assay type: cell-based; details: MDCK-MDR1, Rho123 10 µM, DL0410 50 µM, 2 h
T1 construct: expressed in transfected cells; host or cells: MDCK-MDR1 (canine kidney MDCK cells transfected with the human MDR1 gene)

human P-gp membranes = human P-gp membranes (Homo sapiens, UniProt P08183); assay: P-gp ATPase activity (Pgp-Glo assay); details: P-gp ATPase stimulation
Caco-2 cell monolayer = assay: Transcellular transport across Caco-2 cell monolayer; assay type: in vitro ADME; details: human, Caco-2
Description: as §2, §3, §4

[5] = Transcellular transport across MDCK-MDR1 cell monolayer; assay type: in vitro ADME, Canine; details: dog; MDCK-MDR1 monolayer, integrity control; read-out: permeability value
Description: as §2, §3, §4

Chain of human P-gp membranes (P08183 whole entry): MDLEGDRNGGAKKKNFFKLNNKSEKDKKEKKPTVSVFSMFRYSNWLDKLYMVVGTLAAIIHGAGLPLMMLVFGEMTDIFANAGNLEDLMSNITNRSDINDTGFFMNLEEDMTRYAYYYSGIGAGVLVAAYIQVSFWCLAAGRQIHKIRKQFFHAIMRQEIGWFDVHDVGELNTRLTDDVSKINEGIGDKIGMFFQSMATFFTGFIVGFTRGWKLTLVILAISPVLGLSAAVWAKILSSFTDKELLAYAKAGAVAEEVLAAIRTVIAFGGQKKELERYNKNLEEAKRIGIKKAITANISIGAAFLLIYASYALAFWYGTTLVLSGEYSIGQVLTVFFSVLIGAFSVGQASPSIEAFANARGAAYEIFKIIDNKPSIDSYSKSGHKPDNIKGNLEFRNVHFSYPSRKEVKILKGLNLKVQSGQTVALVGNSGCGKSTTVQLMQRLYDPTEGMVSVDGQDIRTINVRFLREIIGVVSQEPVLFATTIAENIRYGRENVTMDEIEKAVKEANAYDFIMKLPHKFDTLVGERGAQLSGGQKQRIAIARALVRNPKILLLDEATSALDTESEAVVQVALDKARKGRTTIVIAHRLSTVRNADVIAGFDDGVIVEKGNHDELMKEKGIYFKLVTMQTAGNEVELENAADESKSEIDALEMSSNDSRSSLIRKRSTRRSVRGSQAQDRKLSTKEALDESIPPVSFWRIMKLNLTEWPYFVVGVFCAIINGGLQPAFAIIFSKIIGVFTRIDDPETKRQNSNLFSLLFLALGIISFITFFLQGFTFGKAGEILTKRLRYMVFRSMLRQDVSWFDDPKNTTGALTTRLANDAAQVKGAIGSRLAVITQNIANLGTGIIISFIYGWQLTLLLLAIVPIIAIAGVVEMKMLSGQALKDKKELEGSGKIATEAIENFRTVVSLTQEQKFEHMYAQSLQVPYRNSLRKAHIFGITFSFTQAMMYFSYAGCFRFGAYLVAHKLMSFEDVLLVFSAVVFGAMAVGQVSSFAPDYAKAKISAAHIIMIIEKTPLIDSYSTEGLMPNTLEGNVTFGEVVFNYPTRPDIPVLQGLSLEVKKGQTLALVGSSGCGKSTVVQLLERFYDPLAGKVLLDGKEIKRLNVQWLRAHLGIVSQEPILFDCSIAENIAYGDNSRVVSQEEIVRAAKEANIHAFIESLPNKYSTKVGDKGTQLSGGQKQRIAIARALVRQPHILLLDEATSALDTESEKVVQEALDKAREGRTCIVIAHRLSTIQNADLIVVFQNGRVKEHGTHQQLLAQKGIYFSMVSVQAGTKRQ
T1 sequence (P08183 whole entry): as above

In the case of O=C(CCN1CCCCC1)c1ccc(-c2ccc(C(=O)CCN3CCCCC3)cc2)cc1 [DL0410, 1,1’-([1,1’-Biphenyl]-4,4’-diyl)bis(3-(piperidin-1-yl)propan-1-one)dihydrochloride], the cytotoxicity (Caco-2 cells) is reported as “no significant cytotoxic effect”, the cytotoxicity (MDCK cells) is reported as “no significant cytotoxic effect” and the cytotoxicity (MDCK-MDR1 cells) is reported as “no significant cytotoxic effect”. The Papp A→B at 2 h, 10 µM ([1]; pH 7.4, Caco-2, DL0410 10 μM) was 0.725 ± 0.184 ×10⁻⁶ cm/s, the Papp B→A at 2 h, 10 µM ([1]; pH 7.4, Caco-2, DL0410 10 μM) was 3.27 ± 0.251 ×10⁻⁶ cm/s and the efflux ratio at 2 h, 10 µM ([1]; pH 7.4, Caco-2, DL0410 10 μM, read-out: ER) was 4.52. It also gave a Papp A→B at 2 h, 30 µM ([1]; pH 7.4, Caco-2, DL0410 30 μM) of 0.841 ± 0.098 ×10⁻⁶ cm/s, a Papp B→A at 2 h, 30 µM ([1]; pH 7.4, Caco-2, DL0410 30 μM) of 3.45 ± 0.619 ×10⁻⁶ cm/s and an efflux ratio at 2 h, 30 µM ([1]; pH 7.4, Caco-2, DL0410 30 μM, read-out: ER) of 4.1. It also gave a Papp A→B at 2 h, 100 µM ([1]; pH 7.4, Caco-2, DL0410 100 μM) of 1.28 ± 0.017 ×10⁻⁶ cm/s, a Papp B→A at 2 h, 100 µM ([1]; pH 7.4, Caco-2, DL0410 100 μM) of 2.38 ± 0.138 ×10⁻⁶ cm/s and an efflux ratio at 2 h, 100 µM ([1]; pH 7.4, Caco-2, DL0410 100 μM, read-out: ER) of 1.86. The Papp at 2 h ([1]; pH 7.4, Caco-2, summary value in text (A→B), read-out: apparent permeability (Papp)) was roughly 1 ×10⁻⁶ cm/s, the efflux ratio at 2 h ([2]; pH 7.4, MDCK cells, summary value in text, read-out: ER) was roughly 1 and the Papp A→B at 2 h, 10 µM ([2]; pH 7.4, MDCK, DL0410 10 μM) was 0.502 ± 0.103 ×10⁻⁶ cm/s. For the same compound, the Papp B→A at 2 h, 10 µM ([2]; pH 7.4, MDCK, DL0410 10 μM) was 0.708 ± 0.114 ×10⁻⁶ cm/s, the efflux ratio at 2 h, 10 µM ([2]; pH 7.4, MDCK, DL0410 10 μM, read-out: ER) was 1.41 and the Papp A→B at 2 h, 30 µM ([2]; pH 7.4, MDCK, DL0410 30 μM) was 0.74 ± 0.023 ×10⁻⁶ cm/s. It also gave a Papp B→A at 2 h, 30 µM ([2]; pH 7.4, MDCK, DL0410 30 μM) of 0.871 ± 0.068 ×10⁻⁶ cm/s, an efflux ratio at 2 h, 30 µM ([2]; pH 7.4, MDCK, DL0410 30 μM, read-out: ER) of 1.18 and a Papp A→B at 2 h, 100 µM ([2]; pH 7.4, MDCK, DL0410 100 μM) of 0.95 ± 0.116 ×10⁻⁶ cm/s. The Papp B→A at 2 h, 100 µM ([2]; pH 7.4, MDCK, DL0410 100 μM) was 0.924 ± 0.005 ×10⁻⁶ cm/s, the efflux ratio at 2 h, 100 µM ([2]; pH 7.4, MDCK, DL0410 100 μM, read-out: ER) was 0.973 and the NER (MDCK-MDR1 cell monolayer; DL0410 10 μM) was 10.588. It also gave an NER (MDCK-MDR1 cell monolayer; DL0410 30 μM) of 8.770, an NER (MDCK-MDR1 cell monolayer; DL0410 30 μM + verapamil (50 μM)) of 0.311 and an NER (MDCK-MDR1 cell monolayer; DL0410 100 μM) of 5.556. It also gave an efflux ratio at 2 h, 10 µM (P-gp (MDR1)) of 14.9, a Papp A→B at 2 h, 10 µM (P-gp [3]; MDCK-MDR1, DL0410 10 μM) of 0.297 ± 0.111 ×10⁻⁶ cm/s and a Papp B→A at 2 h, 10 µM (P-gp [3]; MDCK-MDR1, DL0410 10 μM) of 4.43 ± 0.376 ×10⁻⁶ cm/s. The Papp A→B at 2 h, 30 µM (P-gp [3]; MDCK-MDR1, DL0410 30 μM) was 0.31 ± 0.021 ×10⁻⁶ cm/s, the Papp B→A at 2 h, 30 µM (P-gp [3]; MDCK-MDR1, DL0410 30 μM) was 3.21 ± 0.061 ×10⁻⁶ cm/s and the efflux ratio at 2 h, 30 µM (P-gp [3]; MDCK-MDR1, DL0410 30 μM, read-out: ER) was 10.3. The Papp A→B at 2 h, 100 µM (P-gp [3]; MDCK-MDR1, DL0410 100 μM) was 0.321 ± 0.039 ×10⁻⁶ cm/s, the Papp B→A at 2 h, 100 µM (P-gp [3]; MDCK-MDR1, DL0410 100 μM) was 1.73 ± 0.105 ×10⁻⁶ cm/s and the efflux ratio at 2 h, 100 µM (P-gp [3]; MDCK-MDR1, DL0410 100 μM, read-out: ER) was 5.41. For the same compound, the “effect on Rho123 transport from BL to AP” value (P-gp [4]) was “reduced Rho123 efflux” and the “concentration at which the activity of ATPase was saturated” value (human P-gp membranes) was 150 µM.
Compound O=C1OC2(c3ccc(O)cc3Oc3cc(O)ccc32)c2ccccc21 [fluorescein, reference compound] has a Papp ([1]; Caco-2 monolayer, integrity control, read-out: apparent permeability (Papp)) of 1.09 ×10⁻⁶ cm/s, a penetration rate (Caco-2 cell monolayer) of 0.10% and a Papp ([2]; MDCK monolayer, integrity control, read-out: permeability value) of 0.702 ×10⁻⁶ cm/s. The Papp [5] was 0.571 ×10⁻⁶ cm/s.
In the case of COc1ccc(CCN(C)CCCC(C#N)(c2ccc(OC)c(OC)c2)C(C)C)cc1OC (stereo not shown) [Verapamil, reference compound], the “concentration at which the activity of ATPase was saturated” value (human P-gp membranes) is reported as 100 µM.
